IC50 data for 28 compounds are collected here from US8557812B2, “Small molecule inhibitors of anti-apoptotic BCL-2 family members and the uses thereof” (The Regents of the University of Michigan, priority 2004, dated 2013).

SMILES strings stand for the structures.

Usually IC50 stands for the concentration that gives 50% inhibition.

Experiment [1] has as its system MDA-MB-231 (2LMP) cells. Kind of experiment: Cell growth of MDA-MB-231 (2LMP) cells (WST). Particulars: Homo sapiens, read-out: IC50 of cell growth inhibition. It counts as cell-based.
Experiment [2] has as its target Bcl-2 (Homo sapiens, UniProt P10415). Kind of experiment: Fluorescence polarization in vitro Bcl-2 binding assay. The protocol: Bcl-2 used in this assay is a recombinant His-fused soluble protein. […] Inc., Research Triangle Park, N.C.). […] The unlabeled Bid peptide is used as the positive control. The Ki values were calculated using our developed equation for FP assay (Nikolovska-Coleska et al., Anal. Biochem., 2004, in press). The program for calculating a Ki value is available free of charge via the Internet at http://sw16.im.med.umich.edu/software/calc_ki/.
For orientation: Polarisation of emitted light reports the rotation of a fluorescent probe.

The target in experiment [3] is human Bcl-xL (Homo sapiens, UniProt Q07817). Kind of experiment: Fluorescence polarization in vitro Bcl-xL binding assay. Particulars: displacement of Flu-Bak peptide. An excerpt: For determination of the binding affinity to Bcl-xL protein a human Bcl-xL recombinant His-tagged protein without the C-terminus hydrophobic tail and the Bak-16mer BH3 peptide labeled with 6-carboxyfluorescein succinimidyl ester (FAM) were used.
Chain of human Bcl-xL (Q07817 1-209 limits assumed): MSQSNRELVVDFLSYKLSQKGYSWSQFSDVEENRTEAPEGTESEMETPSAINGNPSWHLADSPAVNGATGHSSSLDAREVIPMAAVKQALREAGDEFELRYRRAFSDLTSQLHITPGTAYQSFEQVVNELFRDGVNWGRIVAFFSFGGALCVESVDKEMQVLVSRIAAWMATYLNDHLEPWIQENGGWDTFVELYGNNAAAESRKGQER

In experiment [4] the test system is MDA-231 cells. Kind of experiment: Cell survival with CDDP and TW-37 alone or in combination. The class given is cell-based, human. The following applies: CDDP alone, 42 hours. The text has this:
CDDP is a DNA damaging agent and can effectively induce apoptosis in MDA-231 breasted cancer cells and is also a clinically used chemotherapeutic drug for cancer.

Chain of Bcl-2 (P10415 92-205 limits assumed): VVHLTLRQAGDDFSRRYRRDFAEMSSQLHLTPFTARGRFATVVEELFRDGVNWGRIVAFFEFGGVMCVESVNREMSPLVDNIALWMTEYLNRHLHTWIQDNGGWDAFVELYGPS

Turning to `CC(C)Cc1ccc(Cc2cc(CCCC3CCCCC3)c(O)c(O)c2O)cc1` [TM-134], the IC50 in experiment [1] fell in the range of 0.1 to 20 µM.

As to `CCCCCCCCCCC(=O)c1cc(C(C)C)c(O)c(O)c1O` [TM-106], the IC50 is above 1000 nM in experiment [2], above 1000 nM in experiment [3] and 0.1 to 20 µM in experiment [1].

Regarding `CCCCCCCCCCCc1cc(Cc2ccccc2)c(O)c(O)c1O` [TM-121], the values for the IC50 in experiment [2], in experiment [3] and in experiment [1] were at most 1000 nM, above 1000 nM and 0.1 to 20 µM, respectively.

Turning to `CCCCCC(=O)c1cc(C(C)C)c(O)c(O)c1O` [TM-104], the IC50 in experiment [1] lay in the range of 0.1 to 20 µM.

In the case of `Cc1cc(C(=O)c2cc(Cc3ccccc3)c(O)c(O)c2O)c(C(C)C)cc1O` [TM-143], the concentration for half-maximal inhibition (IC50) in experiment [1] was above 20 µM.

For the compound `Cc1ccc(Cc2ccc(Cc3cc(CCCc4ccccc4)c(O)c(O)c3O)cc2)cc1` [TM-133], the IC50 in experiment [3] was above 1000 nM; in experiment [1], 0.1 to 20 µM.

On to `O=C(c1ccc(Oc2ccccc2)cc1)c1cc(-c2ccc3ccccc3c2)c(O)c(O)c1O` [TM-167], for which the results for the IC50 in experiment [3] and in experiment [1] were above 1000 nM and 0.1 to 20 µM, respectively.

As for `CCCCCCCCCCC(c1ccccc1)c1cc(Cc2ccc(Br)cc2)c(O)c(O)c1O` (centres unmarked) [TM-125], the IC50 in experiment [1] is 0.1 to 20 µM.

As to `Cc1cc(C(=O)c2cc(Cc3ccccc3)c(O)c(O)c2O)c(C(C)C)cc1Oc1ccc([N+](=O)[O-])c(C(F)(F)F)c1` [TM-149], the IC50 in experiment [1] was 0.1 to 20 µM.

Consider `CC(C)c1ccc(C(=O)c2cc(CCCc3ccccc3)c(O)c(O)c2O)cc1` [TM-126], for which, in experiment [1], the IC50 was 0.1 to 20 µM.

In the case of `Cc1cc(C(=O)c2cc(Cc3ccccc3)c(O)c(O)c2O)c(C(C)C)cc1Oc1ccc(C(F)(F)F)cc1[N+](=O)[O-]` [TM-148], in experiment [1], the IC50 lay within 0.1 to 20 µM.

With `CC(C)c1cc(CCc2ccc3ccccc3c2)c(O)c(O)c1O` [TM-107], the IC50 was above 1000 nM in experiment [2], above 1000 nM in experiment [3] and 0.1 to 20 µM in experiment [1].

In the case of `CCCCCCCCCCC(=O)c1cc(C(CCCCCCCCCC)c2ccccc2)c(O)c(O)c1O` (centres unmarked) [TM-124], the IC50 in experiment [1] was above 20 µM.

`CC(C)Cc1ccc(Cc2cc(CCCc3ccccc3)c(O)c(O)c2O)cc1` [TM-132]: in experiment [1], the IC50 was in the range of 0.1 to 20 µM.

`CC(C)c1cc(Cc2cc(Cc3ccccc3)c(O)c(O)c2O)ccc1Oc1ccnc2ccccc12` [TM-154]: in experiment [1], the half-maximal inhibitory concentration (IC50) lay in the range of 0.1 to 20 µM.

In the case of `O=C(c1ccc(Oc2ccccc2)cc1)c1cc(C(=O)c2ccc(Oc3ccccc3)cc2)c(O)c(O)c1O` [TM-170], the IC50 in experiment [1] was 0.1 to 20 µM.

As for `O=C(c1ccc(Oc2ccccc2)cc1)c1ccc(O)c(O)c1O` [TM-166], the IC50 in experiment [1] lay in the range of 0.1 to 20 µM.

As for `O=C(c1ccc(Oc2ccccc2)cc1)c1cc(C(=O)c2ccc(-c3ccccc3)cc2)c(O)c(O)c1O` [TM-171], the IC50 in experiment [3] is at most 1000 nM; in experiment [1] it was 0.1 to 20 µM.

Regarding `N.N.[Cl][Pt][Cl]` [cisplatin, Cisplatin, reference compound], the IC50 in experiment [4] is around 750 nM.

`O=C(c1ccc(Br)cc1)c1cc(CCCc2ccccc2)c(O)c(O)c1O` [TM-128]: in experiment [1], the IC50 was in the range of 0.1 to 20 µM.

Consider `O=C(c1ccc(Oc2ccccc2)cc1)c1cc(Cc2ccccc2)c(O)c(O)c1O` [TM-140], for which the IC50 in experiment [3] is above 1000 nM; in experiment [1], 0.1 to 20 µM.

As to `CC(C)c1cc(Cc2cc(Cc3ccccc3)c(O)c(O)c2O)ccc1Oc1ccc([N+](=O)[O-])cc1C(F)(F)F` [TM-155], the IC50 in experiment [1] fell in the range of 0.1 to 20 µM.

For `CCCCCCCCCCCc1cc(O)c(O)c(O)c1CCCc1ccccc1` [TM-130], in experiment [1], the IC50 is 0.1 to 20 µM.

Turning to `Oc1cccc(Cc2ccc(Cc3cc(CCCC4CCCCC4)c(O)c(O)c3O)cc2)c1O` [TM-136], the IC50 in experiment [1] lay within 0.1 to 20 µM.

For the compound `CCCCCCCCCCCCCCC(=O)c1cc(C(C)C)c(O)c(O)c1O` [TM-110], the IC50 in experiment [1] lay in the range of 0.1 to 20 µM.

Take `CCCCCCCCCCCc1cc(CC2CCCCC2)c(O)c(O)c1O` [TM-129]: the IC50 in experiment [2] is above 1000 nM; in experiment [3] it was above 1000 nM; in experiment [1], 0.1 to 20 µM.

For the compound `CCCCCCCCCCCCCCCc1cc(C(C)C)c(O)c(O)c1O` [TM-109], the IC50 in experiment [1] was in the range of 0.1 to 20 µM.

`O=C(c1ccc(Oc2ccccc2)cc1)c1cc(-c2cccc3ccccc23)c(O)c(O)c1O` [TM-165]: the IC50 in experiment [3] was above 1000 nM; in experiment [1], 0.1 to 20 µM.
